These results are taken from patent US11883455B2, “Nigella sativa oil composition” (N.S. OILS LTD., priority 2018, dated 2024).

This assay has as its system production of nitric oxide (NO) by murine macrophages (RAW 264.7 cell line) activated by lipopolysaccharide (LPS). Kind of assay: Nitric oxide (NO) release by LPS-activated RAW 264.7 macrophages, Griess Reagent System. It is filed as cell-based. As to the method: In addition, positive control cells were treated with 20 μM dexamethasone.
On the technique in general: Griess reagent forms a coloured azo dye with nitrite.

For `Cc1ccc(C(C)C)cc1O` [carvacrol], the “NO inhibition by carvacrol alone” value (carvacrol only 0.05%, 0.1%, 0.15% solutions, dilutions 1:500,000, 1:200,000, 1:100,000) is “None of the carvacrol-only dilutions caused any NO inhibition”. Regarding `Cc1ccc(C(C)C)cc1` [p-cymene], the “NO inhibition by p-cymene alone” value (p-cymene only 0.1%, 0.25%, 0.5%, 0.75% solutions, final dilution 1:200,000) is “None of the p-cymene-only dilutions caused any NO inhibition”.
